Laboratory results as given in US10329272B2 (priority 2015, dated 2019).

What was measured:
[1] = system: Botryotinia fuckeliana (Botrytis cinerea); assay: Botryotinia fuckeliana (Botrytis cinerea)/Liquid Culture (Gray Mould); format: cell-based; conditions: liquid culture, growth inhibition photometrically 3-4 days after application, compared to untreated control
Method: Biological Examples Botryotinia fuckeliana (Botrytis cinerea)/Liquid Culture (Gray Mould)
(§1) Conidia of the fungus from cryogenic storage are directly mixed into nutrient broth (Vogels broth). After placing a (DMSO) solution of test compound into a microtiter plate (96-well format), the nutrient broth containing the fungal spores is added. The test plates are incubated at 24° C. and the inhibition of growth is determined photometrically 3-4 days after application.

[2] = system: Glomerella lagenarium (Colletotrichum lagenarium); assay: Glomerella Lagenarium (Colletotrichum Lagenarium)/Liquid Culture (Anthracnose); format: cell-based; conditions: Colletotrichum orbiculare, liquid culture, growth inhibition photometrically 3-4 days after application, compared to untreated control
Method: Glomerella Lagenarium (Colletotrichum Lagenarium)/Liquid Culture (Anthracnose)
as §1, with “(PDB potato dextrose” for “(Vogels”, “measured” for “determined”

Fusarium culmorum = assay: microbe, parasite or virus in culture; format: cell-based; conditions: read-out: control of Fusarium culmorum
Gaeumannomyces graminis = assay: Gaeumannomyces Graminis/Liquid Culture (Take-all of Cereals); format: cell-based; conditions: liquid culture, growth inhibition photometrically 4-5 days after application, compared to untreated control
Method: Gaeumannomyces Graminis/Liquid Culture (Take-all of Cereals)
as §1, with “Mycelial fragments of” for “Conidia of”, “storage were” for “storage are”, “broth (PDB potato dextrose” for “broth (Vogels”, “photometrically 4-5” for “photometrically 3-4”

[3] = system: Monographella nivalis (Microdochium nivale); assay: Monographella Nivalis (Microdochium Nivale)/Liquid Culture (Foot Rot Cereals); format: cell-based; conditions: liquid culture, growth inhibition photometrically 4-5 days after application, compared to untreated control
Method: Monographella Nivalis (Microdochium Nivale)/Liquid Culture (Foot Rot Cereals)
as §1, with “(PDB potato dextrose” for “(Vogels”, “4-5” for “3-4”

[4] = system: Mycosphaerella arachidis (Cercospora arachidicola); assay: Mycosphaerella arachidis (Cercospora arachidicola)/Liquid Culture (Early Leaf Spot); format: cell-based; conditions: 20 ppm; liquid culture, growth inhibition photometrically 4-5 days after application; compared to untreated control
Method: Mycosphaerella arachidis (Cercospora arachidicola)/Liquid Culture (Early Leaf Spot)
as §1, with “(PDB potato dextrose” for “(Vogels”, “4-5” for “3-4”

[5] = system: Magnaporthe grisea (Pyricularia oryzae); assay: microbe, parasite or virus in culture; format: cell-based; conditions: read-out: control of Magnaporthe grisea
[6] = system: Mycosphaerella graminicola (Septoria tritici); assay: microbe, parasite or virus in culture; format: cell-based; conditions: Zymoseptoria tritici, read-out: control of Mycosphaerella graminicola
Sclerotinia sclerotiorum = assay: Sclerotinia sclerotiorum/Liquid Culture (Cottony Rot); format: cell-based; conditions: liquid culture, growth inhibition photometrically 3-4 days after application, compared to untreated control
Method: Sclerotinia sclerotiorum/Liquid Culture (Cottony Rot)
as §1, with “Mycelia fragments of a newly grown liquid culture” for “Conidia”, “fungus” for “fungus from cryogenic storage”, “format)” for “format),”, “material” for “spores”

Row | SMILES | inhibition of growth at 20 ppm [1] [%] | inhibition of growth at 20 ppm [2] [%] | inhibition of growth at 20 ppm (Fusarium culmorum) [%] | inhibition of growth at 20 ppm (Gaeumannomyces graminis) [%] | inhibition of growth at 20 ppm [3] [%] | control of Mycosphaerella arachidis [4] | inhibition of growth at 20 ppm [5] [%] | inhibition of growth at 20 ppm [6] [%] | inhibition of growth at 20 ppm (Sclerotinia sclerotiorum) [%] | melting point [°C]
1 | Cn1nc2ccccc2c1C1=NC(C)(C)C(C)(C)c2c(F)cccc21 [Compound E-1, 5-fluoro-3,3,4,4-tetramethyl-1-(2-methylindazol-3-yl)isoquinoline] | ≥ 80 | ≥ 80 | ≥ 80 | ≥ 80 | ≥ 80 | at least 80% | ≥ 80 | ≥ 80 | ≥ 80 | 113 to 115
2 | Cn1nc2c(Br)cccc2c1C1=NC(C)(C)C(C)(C)c2c(F)cccc21 [Compound E-8, 1-(7-bromo-2-methyl-indazol-3-yl)-5-fluoro-3,3,4,4-tetramethyl-isoquinoline] | ≥ 80 | ≥ 80 | – | – | ≥ 80 | – | ≥ 80 | ≥ 80 | ≥ 80 | –
3 | Cc1cccc2c(C3=NC(C)(C)C(C)(C)c4c(F)cccc43)n(C)nc12 [Compound E-9, 1-(2,7-dimethylindazol-3-yl)-5-fluoro-3,3,4,4-tetramethyl-isoquinoline] | ≥ 80 | ≥ 80 | ≥ 80 | ≥ 80 | ≥ 80 | – | ≥ 80 | ≥ 80 | ≥ 80 | –
4 | Cn1nc2c(Cl)cccc2c1C1=NC(C)(C)C(C)(C)c2c(F)cccc21 [Compound E-22, 1-(7-chloro-2-methyl-indazol-3-yl)-5-fluoro-3,3,4,4-tetramethyl-isoquinoline] | ≥ 80 | – | ≥ 80 | – | ≥ 80 | – | ≥ 80 | ≥ 80 | – | 45 to 47
5 | Cn1nc2c(Cl)c(Cl)ccc2c1C1=NC(C)(C)C(C)(C)c2c(F)cccc21 [Compound E-23, 1-(6,7-dichloro-2-methyl-indazol-3-yl)-5-fluoro-3,3,4,4-tetramethyl-isoquinoline] | ≥ 80 | ≥ 80 | – | ≥ 80 | ≥ 80 | – | ≥ 80 | ≥ 80 | ≥ 80 | –
6 | Cc1ccc2c(C3=NC(C)(C)C(C)(C)c4c(F)cccc43)n(C)nc2c1Cl [Compound E-27, 1-(7-chloro-2,6-dimethyl-indazol-3-yl)-5-fluoro-3,3,4,4-tetramethyl-isoquinoline] | ≥ 80 | ≥ 80 | ≥ 80 | ≥ 80 | ≥ 80 | – | ≥ 80 | ≥ 80 | ≥ 80 | 113 to 116
7 | Cc1ccc2c(C3=NC(C)(C)C(C)(C)c4c(F)cccc43)n(C)nc2c1 [Compound E-28, 1-(2,6-dimethylindazol-3-yl)-5-fluoro-3,3,4,4-tetramethyl-isoquinoline] | ≥ 80 | ≥ 80 | ≥ 80 | ≥ 80 | ≥ 80 | – | ≥ 80 | ≥ 80 | ≥ 80 | 137 to 138
8 | Cc1ccc2c(C3=NC(C)(C)C(C)(C)c4c(F)cccc43)n(C)nc2c1C [Compound E-30, 5-fluoro-3,3,4,4-tetramethyl-1-(2,6,7-trimethylindazol-3-yl)isoquinoline] | ≥ 80 | ≥ 80 | – | – | ≥ 80 | – | ≥ 80 | ≥ 80 | ≥ 80 | 111 to 113
